Experimental data reported in ChEMBL document CHEMBL5260860, “Simple monocyclic pyrimidine analogs as microtubule targeting agents binding to the colchicine site” (Bioorg Med Chem, 2023).
The source made the active and inactive calls. The rule behind the calls is not given here.

How the values were obtained:
SK-OV-3 [1] = assay: Antiproliferative activity against wild type human SK-OV-3 cells assessed as inhibition of cell growth by SRB assay; assay type: functional, cell-based
[2] = Induction of microtubule depolymerization in rat A10 cells incubated for 18 hrs by indirect immunofluorescence analysis; assay type: cell-based
MDA-MB-435 [3] = assay: Antiproliferative activity against human MDA-MB-435 cells assessed as inhibition of cell growth by SRB assay; assay type: functional, cell-based
[4] = Selectivity ratio of EC50 for induction of microtubule depolymerization in rat A10 cells to IC50 for antiproliferative activity against human MDA-MB-435 cells
SK-OV-3 [5] = assay: Antiproliferative activity against human SK-OV-3 cells overexpressing MDR-1-M6/6 assessed as inhibition of cell growth by SRB assay; assay type: functional, cell-based
HeLa [6] = assay: Antiproliferative activity against wild type human HeLa cells assessed as inhibition of cell growth by SRB assay; assay type: functional, cell-based
HeLa [7] = assay: Antiproliferative activity against human HeLa cells overexpressing betaIII-tubulin assessed as inhibition of cell growth by SRB assay; assay type: functional, cell-based
Tubulin (Bos taurus) = Tubulin (Bos taurus) (UniProt Q6B856+Q862L2+Q862F3); assay: Displacement of [3H]colchicine from bovine brain tubulin at 5 uM incubated for 10 mins; assay type: tissue-based
MDA-MB-435 [8] = assay: Antitumor activity against human MDA-MB-435 cells xenografted in nude mouse assessed as reduction in tumor volume at 15 mg/kg, ip administered 3 times a week for 2 weeks and measured on day 14; assay type: functional, organism-based; conditions: time 14.0 day
MDA-MB-435 [9] = assay: Antitumor activity against human MDA-MB-435 cells xenografted in nude mouse at 15 mg/kg, ip administered 3 times a week for 2 weeks and measured on day 14; assay type: functional, organism-based; conditions: time 14.0 day
Tubulin = Tubulin (Bos taurus, UniProt Q6B856+Q862L2+Q862F3); assay: Inhibition of bovine brain tubulin assembly; assay type: tissue-based
MDA-MB-435 [10] = assay: Antitumor activity against human MDA-MB-435 cells xenografted in nude mouse assessed as reduction in tumor volume at 50 mg/kg, ip administered 3 times a week for 2 weeks and measured on day 14; assay type: functional, organism-based; conditions: time 14.0 day
MDA-MB-435 [11] = assay: Antitumor activity against human MDA-MB-435 cells xenografted in nude mouse at 50 mg/kg, ip administered 3 times a week for 2 weeks and measured on day 14; assay type: functional, organism-based; conditions: time 14.0 day

SMILES	IC50 (SK-OV-3 [1]) [nM]	EC50 [2] [nM]	IC50 (MDA-MB-435 [3]) [nM]	IC50 (SK-OV-3 [5]) [nM]	IC50 (HeLa [6]) [nM]	IC50 (HeLa [7]) [nM]	inhibition (Tubulin (Bos taurus)) [%]	IC50 (Tubulin) [nM]	Selectivity ratio [4]	Activity (MDA-MB-435 [8])	Activity (MDA-MB-435 [9])	Activity (MDA-MB-435 [10])	Activity (MDA-MB-435 [11])
COc1ccc(N(C)c2nc(C)nc(NC(C)=O)c2Cl)cc1		> 15000	3700										
CC(=O)O[C@H]1C(=O)[C@@]2(C)[C@H]([C@H](OC(=O)c3ccccc3)[C@]3(O)C[C@H](OC(=O)[C@H](O)[C@@H](NC(=O)c4ccccc4)c4ccccc4)C(C)=C1C3(C)C)[C@]1(OC(C)=O)CO[C@@H]1C[C@@H]2O [PACLITAXEL]	5									Active	inactive		
COc1ccc(Nc2nc(C)nc(N)c2Cl)cc1		> 10000											
COc1ccc(/C=C\c2cc(OC)c(OC)c(OC)c2)cc1O [COMBRETASTATIN A4]		9.8											
COc1ccc(N(C)c2nc(C)nc(NCc3ccccc3)c2Cl)cc1		> 10000					14						
COc1ccc(N(C)c2nc(C)nc(N)c2C)cc1	312	> 8000	206	> 500	229	250	45		>39				
COc1ccc2c(c1)CCCN2c1nc(C)nc(NC(=O)C(C)(C)C)c1Cl	3300	> 10000	2100		2600	2600							
COc1cccc(N(C)c2nc(C)nc(N)c2Cl)c1		> 10000											

Further lines, with some results ahead:

IC50 (SK-OV-3 [1]) [nM]	EC50 [2] [nM]	IC50 (MDA-MB-435 [3]) [nM]	IC50 (SK-OV-3 [5]) [nM]	IC50 (HeLa [6]) [nM]	IC50 (HeLa [7]) [nM]	inhibition (Tubulin (Bos taurus)) [%]	IC50 (Tubulin) [nM]	SMILES	Selectivity ratio [4]	Activity (MDA-MB-435 [8])	Activity (MDA-MB-435 [9])	Activity (MDA-MB-435 [10])	Activity (MDA-MB-435 [11])
64.7	831	56.1	193	67.1	70.2	74		COc1cccc2cc(N(C)c3nc(C)nc(N)c3Cl)ccc12	15				
118	2100	103	169	87.6	107	68		CNc1nc(C)nc(N(C)c2ccc(OC)cc2)c1Cl	20				
77.9	305	50.4	93.5	41.8	61.7	74		CCNc1nc(C)nc(N(C)c2ccc(OC)cc2)c1Cl	6				
459	1400	220	576	312	279	61		COc1ccc2c(c1)CCCN2c1nc(C)nc(N)c1Cl	6.5				
133	1500	71.3	180	86.3	112	76		COc1ccc(N(C)c2nc(C)nc(N)c2Cl)cc1	21				
1400	7400	685	1600	800	1000			COc1ccc(N(C)c2nc(C)nc(NC(C)C)c2Cl)cc1	11				
122	432	84.4	165	66.2	105	84		CCCCNc1nc(C)nc(N(C)c2ccc(OC)cc2)c1Cl	5				
227	260	221	362	368	234	61		CCCNc1nc(C)nc(N(C)c2ccc3c(OC)cccc3c2)c1Cl	1.2				
	5800					70	2600	COc1ccc(N(C)c2nc(C)nc3[nH]ccc23)cc1	32				
742	9200	620	1050	490	415	60		Cc1nc(N)c(Cl)c(N(C)c2ccc3c(c2)CCO3)n1	15				
107	394	78.1	117	96.7	104	57		COc1ccc(N(C)c2nc(C)nc(NCC(C)C)c2Cl)cc1	5				
34.2	123	24.4	39.2	27.9	33.8	82		CCCNc1nc(C)nc(N(C)c2ccc(OC)cc2)c1Cl	5			Active	inactive
277	3300	140		158	163	71		CSc1ccc(N(C)c2nc(C)nc(N)c2Cl)cc1					
